From US20100317626A1, “The Use Of (3-Amino-2-Fluoropropyl) Phosphinic Acid For Treatment Of NERD” (ASTRAZENECA AB, priority 2007, published 2010)

Assays:
[1] = test system: transient lower esophageal sphincter relaxations (TLESRs); test: Clinical study: number of TLESRs after a standardised meal, single-blind randomised placebo-controlled; assay type: in vivo, healthy volunteers; settings: for reduction of the number of transient lower esophageal sphincter relaxations (TLESRs) as compared to placebo: healthy volunteers, 0-3 hours after intake of a standardised meal completed 1 hour after drug intake
Experimental: A clinical study of (2R)-(3-Amino-2-fluoropropyl)phosphinic acid was performed. The study was a single-blind, randomised, parallel group, placebo-controlled study in healthy volunteers. Each subject was given 2 doses of (2R)-(3-Amino-2-fluoropropyl)phosphinic acid in escalating order and one placebo dose. A dose of (2R)-(3-Amino-2-fluoropropyl)phosphinic acid 0.8 mg/kg was compared to placebo and baclofen (40 mg) was used as a positive control. The order of treatments was randomised. The number of transient lower esophageal sphincter relaxations (TLESRs) 0-3 hours after intake of a standardised meal, (completed 1 hour after drug intake) were reduced by 36% and 47% for (2R)-(3-Amino-2-fluoropropyl)phosphinic acid and baclofen respectively, as compared to placebo (FIG. 1).

[2] = test system: bile reflux and reflux symptoms; settings: patients with persistent non-acid duodenogastroesophageal reflux; cited from earlier work
[3] = clinical study in healthy volunteers

| Structure (SMILES) | inhibition of TLESRs (result in words) [1, 3] | tolerability [1, 3] | reduction of the number of transient lower esophageal sphincter relaxations (TLESRs) as compared to placebo ([1]; dose 0.8 mg/kg) | reduction of the number of transient lower esophageal sphincter relaxations (TLESRs) as compared to placebo ([1]; baclofen 40 mg, positive control) | effect on bile reflux and reflux symptoms [2] |
| --- | --- | --- | --- | --- | --- |
| NC[C@@H](F)C[PH](=O)O [(2R)-(3-Amino-2-fluoropropyl)phosphinic acid] | efficacious | well tolerated | 36% | – | – |
| NCC(CC(=O)O)c1ccc(Cl)cc1 (centres unmarked) [baclofen, reference compound] | – | – | – | 47% | inhibit the occurrence of bile reflux and reflux symptoms |
